From BindingDB's records for patent US8933095 (Pfizer, 2015)

Molecular target: Kynurenine/alpha-aminoadipate aminotransferase, mitochondrial (Homo sapiens, UniProt Q8N5Z0)
Assay: Inhibition Spectra Assay
Settings: 37 °C
Method: Formation of kynurenic acid (KYNA) is indirectly assessed by a decrease in light absorbance at 370 nm (OD370) as the L-kynurenine (KYN) substrate is converted by the human KAT II (hKAT II) enzyme into KYNA. An inhibitor would therefore inhibit the decrease in OD370.The protocol was performed by placing the following reagents into a Costar 384 well black plate (30 uL total assay volume/well): 10 uL of 3x concentrated compound; 10 uL of 3x concentrated substrate mix (BGG (Sigma G-5009); 3 mM L-Kynurenine in 150 mM Tris Acetate (Sigma K3750); 3 mM alpha-ketoglutaric acid in 150 mM Tris Acetate (Sigma K2010); and 210 uM pyridoxal 5-phosphate (PLP) in 150 mM Tris Acetate (Sigma 9255)); and 10 uL of 3x concentrated enzyme (15 nM enzyme in 150 mM Tris Acetate with 0.3% bovine serum).Plates were sealed and incubated at 37 C. for 15-20 h before reading OD370 on a SpectraMax Plus plate reader.

Sequence of Kynurenine/alpha-aminoadipate aminotransferase, mitochondrial (Q8N5Z0 whole entry): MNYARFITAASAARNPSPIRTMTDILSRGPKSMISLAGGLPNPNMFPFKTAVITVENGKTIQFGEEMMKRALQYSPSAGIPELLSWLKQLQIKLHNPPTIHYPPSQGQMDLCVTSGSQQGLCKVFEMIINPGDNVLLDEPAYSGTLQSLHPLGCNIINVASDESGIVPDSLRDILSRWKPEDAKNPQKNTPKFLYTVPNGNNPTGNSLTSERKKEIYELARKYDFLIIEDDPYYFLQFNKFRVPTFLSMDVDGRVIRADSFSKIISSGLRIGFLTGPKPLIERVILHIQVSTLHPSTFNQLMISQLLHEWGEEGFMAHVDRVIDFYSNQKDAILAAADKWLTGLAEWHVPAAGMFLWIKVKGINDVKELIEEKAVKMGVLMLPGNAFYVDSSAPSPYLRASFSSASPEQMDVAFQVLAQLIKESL

IC50: 63.7 nM
SMILES: Cn1nc2c(c1Cc1ccccc1)C[C@@H](N)C(=O)N2O [US8933095, 2]
